{"source": "patent US20090123564A1", "about": "“NOVEL COMPOSITIONS FOR HAIR DISORDERS AND PROCESS OF PREPARATION THEREOF” (priority 2006, published 2009)", "key": {"[1]": {"system": "dihydrotestosterone (DHT)", "details": "cited from earlier work"}, "[2]": {"system": "androgen induced alopecia in hamsters", "test": "Comparative efficacy of Vernonia anthelmintica extract against finasteride in androgen induced alopecia", "type": "in vivo", "details": "for Mean ± SEM hair growth on a 0-3 scale: hamsters given testosterone i.m., treatments twice daily for 21 days, control 2.75 ± 0.171", "experimental": "Hamsters were divided into five different groups; one normal control group, three drug treated groups and one testosterone control group. On day 0 of the study, the fur over and around the flank organs was shaved with electric clippers. 95% alcohol (100 μl/site) was applied topically, twice daily to Testosterone Control and Normal control groups for 21 days. Saw Palmetto cream was applied topically (100 mg/site) twice daily for 21 days. 100 μl/site of 2% solution of Vernonia anthelmintica extract was applied topically, twice daily for 21 days. Finasteride (0.6 mg/kg) was administered orally twice daily for 21 days. Different groups except normal control group was administered testosterone (25 mg, i.m. in divided doses of 33.3 μl on day 0, 7, and 14) 1-hour post drug administration. At day 7, the fur around the flank organs was re-clipped. The amount of hair growth on the area surrounding the flank organs was visually graded at weekly intervals on a 0-3 scale (0=bald skin, 1=slight hair growth, 2=moderate hair growth and 3=full hair growth). The result is presented in table-2 and shown graphically in FIG. 3."}, "[3]": {"system": "testosterone-induced alopecia in hamsters", "test": "Vernonia anthelmintica extract against testosterone-induced alopecia in hamsters", "type": "in vivo", "details": "day 22; visual grading on 0-3 scale (0=bald skin, 3=full hair growth); control=2.0", "experimental": "The efficacy of an extract of Vernonia anthelmintica (prepared according to Example-1 as stated hereinafter) against testosterone-induced alopecia in hamsters was studied. Male hamsters (n=6/group) weighing 90-120 g were procured from central animal house of Panacea Biotec Ltd. for study. Drugs used to induce alopecia was Testosterone i.m. depot injection (Testoviron); B.No. K1007, German Remedies Limited; each ml of which contains Testosterone Enanthate USP . . . 250 mg and Arachis oil IP . . . qs. The route of administration of the cream compositions was topical and the duration of study was 22 days. Hamsters were divided into two different groups; one Vernonia anthelmintica extract treated groups and another testosterone control group. On day 0 of study, the fur over and around the flank organs would be shaved with electric clippers.\nTestosterone was administered intramuscularly in divided doses, whereas Vernonia anthelmintica extract was applied topically twice daily for 21 days. On day 7, the fur around the flank organs was re-clipped. The amount of hair growth on the area surrounding the flank organs was visually graded on day 22 on a 0-3 scale (0=bald skin, 1=slight hair growth, 2=moderate hair growth and 3=full hair growth). Photographs of flank organ were taken on day 0 and 22. […]"}, "[4]": {"system": "testosterone-induced alopecia in hamsters", "test": "Dose-response of Vernonia extract gel versus Vernonia freeze dried juice gel in testosterone-challenged hamsters", "type": "in vivo", "details": "day 22; 0-3 scale; normal control=1.31±0.18", "experimental": "A further study was performed to study the dose-response of Vernonia extract gel and to compare its hair growth promoting effect against Vernonia freeze dried juice gel. The Vernonia extract gel was prepared by making an organic solvent extract of Vernonia and formulating it into a gel composition. The Vernonia freeze dried juice gel was prepared by expressing the juice from fresh leaves and flowering tops of Vernonia followed by freeze drying and formulating it into a gel composition. Male hamsters (n=6-8/group) weighing 80-90 g procured from the Central animal house of Panacea Biotec Ltd. were used. Drugs used to induce alopecia was Testosterone i.m. depot injection (Testoviron); B.No. K1007, German Remedies Limited; each ml of which contains Testosterone Enanthate USP . . . 250 mg and Arachis oil IP . . . qs. The following were used for conducting the study namely Vernonia extract gels B.No. 0629/030A (0.5% w/w), B.No. 0629/030B (1% w/w) and B.No. 0629/030C (2% w/w); and Vernonia freeze dried juice gels B.No. 0629/026A (1.25% w/w) and B.No. 0629/026B (2.5% w/w) (prepared according to Example-5 and Example-6 as stated hereinafter). […]\n(§1) Testosterone was administered intramuscularly in divided doses, whereas Vernonia cream (s) (100 mg) was applied topically twice daily. […] The hair growth presented as mean was analyzed by one-way ANOVA followed by Student-Newman-Keuls multiple-range test. […]"}, "[5]": {"system": "testosterone-induced alopecia in hamsters", "test": "Strength of Vernonia creams in testosterone-induced alopecia in hamsters", "type": "in vivo", "details": "day 22; 0-3 scale; creams 100 mg topical bid for 21 days; normal control=3", "experimental": "Male hamsters (n=6/group) weighing 80-90 g procured from Central animal house of Panacea Biotec Ltd. were used. Drugs used to induce alopecia was Testosterone i.m. depot injection (Testoviron); B.No. K1007, German Remedies Limited; each ml of which contains Testosterone Enanthate USP . . . 250 mg and Arachis oil IP . . . qs. Four batches of Vernonia creams of different strengths were used for conducting the study namely B.No. 0629/010A (2% w/w), B.No. 0629/010C (0.2% w/w), B.No. 0629/014A (2% w/w) and B.No. 0629/014C (0.2% w/w) prepared according to Example-3 and Example 4 as stated hereinafter. The route of administration of the cream compositions was topical and the duration of study was 22 days. The fur over and around the flank organs of hamsters was shaved with electric clippers. Hamsters were divided into four different groups and allocated different treatments. The summary of different treatments is represented in Table-3.\nas §1, with “cream(s)” for “cream (s)”, “daily. All the treatments were given for 21 days. On day 7, the fur around the flank organs was re-clipped.” for “daily.”"}, "[6]": {"system": "leukenia cells L-1210", "details": "L-1210 cells; cited from earlier work"}, "[7]": {"system": "leukenia cells P-388", "details": "P-388 cells; cited from earlier work"}, "[8]": {"system": "human carcinoma nasopharynx cells", "details": "cited from earlier work"}}, "data": [{"compound": "CC(C)(C)NC(=O)[C@H]1CC[C@H]2[C@@H]3CC[C@H]4NC(=O)C=C[C@]4(C)[C@H]3CC[C@]12C", "note": "[Finasteride]", "values": [{"measurement": "Decrease of DHT concentration in the scalp", "setting": "[1]; scalp", "result": "≤ 60", "unit": "%"}, {"measurement": "Decrease of DHT concentration in the serum", "setting": "[1]; serum", "result": "up to 70%"}, {"measurement": "Reversal of testosterone induced-hair loss", "setting": "[2]; day 22", "result": "significantly reversed testosterone induced-hair loss"}, {"measurement": "Mean ± SEM hair growth on a 0-3 scale", "setting": "[2]", "result": "2.20 ± 0.339"}]}, {"compound": "CCCCCCC(=O)O[C@H]1CC[C@H]2[C@@H]3CCC4=CC(=O)CC[C@]4(C)[C@H]3CC[C@]12C", "note": "[Testosterone, Testosterone Enanthate]", "values": [{"measurement": "Hair growth score", "setting": "[3]", "result": "0.58±0.15"}, {"measurement": "Hair growth score", "setting": "[4]", "result": 0}, {"measurement": "Hair growth score", "setting": "[5]", "result": 0.13}, {"measurement": "Mean ± SEM hair growth on a 0-3 scale", "setting": "[2]", "result": "1.33 ± 0.211"}]}, {"compound": "vernodaline", "values": [{"measurement": "IC50, antitumoral effects", "setting": "[6]", "result": 0.17, "unit": "µg/mL"}, {"measurement": "IC50, antitumoral effects", "setting": "[7]", "result": 0.11, "unit": "µg/mL"}]}, {"compound": "vernolide", "values": [{"measurement": "IC50, antitumoral effects", "setting": "[6]", "result": 0.11, "unit": "µg/mL"}, {"measurement": "IC50, cytotoxic effects", "setting": "[8]", "result": 2.0, "unit": "µg/mL"}, {"measurement": "IC50, antitumoral effects", "setting": "[7]", "result": 0.13, "unit": "µg/mL"}]}]}
